Test results as given in patent EP1448559B1, “5-(4-(2-(N-METHYL-N-(2-PYRIDYL)AMINO)ETHOXY)BENZYL)THIAZOLIDINE-2,4-DIONE BENZENESULFONATE; PROCESS FOR ITS PREPARATION; POLYMORPHS I, II AND III THEREOF; AND ITS USE AS PHARMACEUTICAL ACTIVE INGREDIENT” (SMITHKLINE BEECHAM PLC, priority 2001, dated 2003).

Experiment: Solubility in water (visual, confirmed by HPLC assay of a saturated solution)

CN(CCOc1ccc(CC2SC(=O)NC2=O)cc1)c1ccccn1 (centres unmarked) [Benzenesulfonate propan-2-ol solvate, 5-[4-[2-(N-Methyl-N-(2-pyridyl)amino)ethoxy]benzyl]thiazolidine-2,4-dione benzenesulfonate propan-2-ol solvate]
solubility (water): 1600 µg/mL

CN(CCOc1ccc(CC2SC(=O)NC2=O)cc1)c1ccccn1 (centres unmarked) [Benzenesulfonate Form II, 5-[4-[2-(N-Methyl-N-(2-pyridyl)amino)ethoxy]benzyl]thiazolidine-2,4-dione benzenesulfonate Form II]
solubility (water added in aliquots from 1 to 1000ml to approximately 100mg of drug substance, confirmed by HPLC assay of a saturated solution): 1400 µg/mL
